Experimental data taken from paper PMC9610647, “Acetylcholinesterase Inhibitory Activities of Essential Oils from Vietnamese Traditional Medicinal Plants” (Molecules, 2022).

What was measured:
[1] = test system: AChE from Electrophorus electricus (electric eel); conditions: cited from earlier work
[2] = test system: AChE of bovine erythrocytes; conditions: cited from earlier work
[3] = test system: AChE from human erythrocytes; conditions: cited from earlier work
electric eel AChE = biological target: T1, electric eel AChE (Electrophorus electricus, UniProt O42275); experiment: Acetylcholinesterase (AChE) inhibition assay, Ellman method; type: biochemical; conditions: for inhibition at 4 µg/mL: read-out: Acetylcholinesterase inhibitory activity at 4 µg/mL; for inhibition at 20 µg/mL: read-out: Acetylcholinesterase inhibitory activity at 20 µg/mL; for inhibition at 100 µg/mL: read-out: Acetylcholinesterase inhibitory activity at 100 µg/mL; for inhibition at 500 µg/mL: read-out: Acetylcholinesterase inhibitory activity at 500 µg/mL
T1 construct: purchased Sigma-Aldrich
T1 sequence (O42275 24-633): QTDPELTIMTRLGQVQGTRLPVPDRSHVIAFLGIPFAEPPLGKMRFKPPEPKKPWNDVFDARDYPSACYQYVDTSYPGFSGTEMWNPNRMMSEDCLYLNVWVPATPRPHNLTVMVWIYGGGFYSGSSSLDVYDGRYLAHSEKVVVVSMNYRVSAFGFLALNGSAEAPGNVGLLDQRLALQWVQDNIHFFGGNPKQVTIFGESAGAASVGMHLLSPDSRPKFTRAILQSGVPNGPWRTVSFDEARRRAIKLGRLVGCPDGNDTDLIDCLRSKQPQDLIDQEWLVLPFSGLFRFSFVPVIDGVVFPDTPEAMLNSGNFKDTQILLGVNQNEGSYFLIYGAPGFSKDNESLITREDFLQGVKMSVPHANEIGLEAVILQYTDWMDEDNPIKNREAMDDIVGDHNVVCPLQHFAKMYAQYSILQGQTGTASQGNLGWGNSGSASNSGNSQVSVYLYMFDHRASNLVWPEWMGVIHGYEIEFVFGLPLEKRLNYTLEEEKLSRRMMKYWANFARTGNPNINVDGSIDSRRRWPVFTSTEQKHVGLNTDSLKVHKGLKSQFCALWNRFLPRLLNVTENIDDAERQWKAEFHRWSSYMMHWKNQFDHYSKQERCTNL
Description: Acetylcholinesterase (AChE) inhibitory activity of essential oil was determined according to the method described by Ellman and our previous study. The stock solution was obtained by dissolving the essential oil in DMSO (Merck), which was then diluted with H2O (deionized distilled water) to obtain different experimental concentrations. Each solution mixture consisted of 140 μL of phosphate buffer solution (pH: 8), 20 μL of essential oil at concentrations of 500, 100, 20, and 4 μg/mL, and 20 μL of the enzyme AChE (0.25 IU/mL, Sigma-Aldrich, St. Louis, MO, USA). The reaction mixtures were transferred to the test wells of a 96-well microtiter plate and incubated at 25 °C for 15 min. Then, solutions of 10 μL dithiobisnitrobenzoic acid (DTNB, 2.5 mM, Sigma-Aldrich) and 10 μL acetylthiocholine iodide (ACTI, 2.5 mM, Sigma-Aldrich) were added to each of the test wells and incubation continued for 10 min at 25 °C. […] Each test was carried out in triplicate.

AChE = conditions: cited from earlier work
[4] = IC50 (μM), IC50 ± standard deviation
[5] = IC50, IC50 ± standard deviation

SMILES	IC50 (electric eel AChE; [4])	IC50 (electric eel AChE; [5])	inhibition at 4 µg/mL (electric eel AChE)	inhibition at 20 µg/mL (electric eel AChE)	inhibition at 100 µg/mL (electric eel AChE)	inhibition at 500 µg/mL (electric eel AChE)	IC50 (AChE)	other results
CC12CCC(CC1)C(C)(C)O2 [1,8-Cineole, reference compound]								IC50 [1]: 6 µM; IC50 [2]: 390 ± 60 µM
C=C1CCC=C(C)CCC2C1CC2(C)C (stereo not drawn) [(E)-β-Caryophyllene]	436 ± 29.9 µM	436 µM	6.09%	26.3%	52.9%	79%		inhibition of AChE ([1]; concentration 0.06 mM): 32%; IC50 [3]: 147 ± 15 µM
C=C1CC[C@H]2O[C@]2(C)CC[C@@H]2[C@@H]1CC2(C)C [Caryophyllene Oxide]	1450 ± 61 µM	1450 µM	-2.11%	0.49%	16.9%	74%		AChE inhibition ([1]; 200 µg/mL): 41.46 ± 2.66%; AChE inhibition ([2]; 250 µg/mL): 35 ± 4.7%
C=C(C)C1CC=C(C)CC1 (stereo not drawn) [Limonene]	390 ± 30 µM	390 µM	18.2%	27%	67.7%	90.8%		
CC1(C)C2CC=C(C=O)C1C2 (stereo not drawn) [Myrtenal]							170 µM	
C=C1CCC2(C(C)C)CC12 (stereo not drawn) [Sabinene]							1300 ± 21 µM	
C=C(C)C1CC=C(C)C(O)C1 (stereo not drawn) [trans-Carveol]	676 µM	676 µM	1.19%	16.8%	55.3%	76.9%		
CC1=CCCC(C)=CCC(C)(C)C=CC1 [α-Humulene]	785 ± 66 µM	785 µM	19.4%	25.1%	44.3%	72.8%		
CC1=CCC2CC1C2(C)C (stereo not drawn) [α-Pinene, reference compound]								IC50 [2]: 660 ± 40 µM
CC1=CC=C(C(C)C)CC1 [α-terpinene]							1000 µM	
CC1=CC[C@@H](C(C)(C)O)CC1 [α-terpineol]							8400 ± 400 µM	
C=C1CCC2CC1C2(C)C (stereo not drawn) [β-Pinene]	525 ± 42.4 µM	524 µM	20.9%	28.9%	58.9%	86.5%		IC50 [2]: ~1500 µM
